Five compounds from US20040214305A1, “Method of improving biomass yield of lactic acid bacterial cultures” (DANMARKS TEKNISKE UNIVERSITET, priority 2000, published 2004) can be followed below.

Assay [1] relates to Lactococcus lactis subsp. cremoris PJ4662. The assay is described as follows: Biomass yield (OD600) in aerobic batch culture in defined SA medium. It counts as cell-based. The note with it: for Increase of yield of biomass relative to MSA / Increase of yield of biomass relative to GSA: PJ4662, aerobic; for Increase of yield of biomass relative to MSA / Biomass: SA medium with 0.1% maltose; for Increase of yield of biomass relative to GSA: SA medium with growth limiting glucose; for Biomass: PJ4662, batch, maltose alone = 100. As for the experimental part:
Wild type L. lactis subsp. cremoris PJ4662, a derivative of the strain MG1363 containing the pAK80 plasmid (Israelsen et al., 1995) was grown aerobically in defined SA medium (Jensen and Hammer, 1993) supplemented with a growth limiting concentration of glucose (GSA), and in GSA medium further supplemented with haemin (GSA+H), heamin+lipoic acid (GSA+H+L) and: lipoic acid alone (GSA+L). The biomass yield was estimated by measuring the optical density at 600 nm (OD600). The yield of biomass increased by about 12% relative to the yield obtained with GSA when the medium was supplemented with haemin, by about 25% using the haemin+lipoic acid supplement and by about 7% using lipoic acid alone.
L. lactis subsp. cremoris PJ4662 was grown aerobically in defined SA medium (Jensen and Hammer, 1993) supplemented with a growth-limiting concentration of 0.1% maltose (MSA), and in MSA medium further supplemented with haemin (MSA+H), haemin+lipoic acid (MSA+H+L) and lipoic acid alone (MSA+L). The biomass yield was estimated by measuring the optical density at 600 nm (OD600), see Table 1.2 below.
It was also tested whether the extent of aeration affected the biomass yield and the amount of ATP produced by oxidative phosphorylation by performing an experiment (Table 1.3) using more vigorous aeration as compared to the experiment illustrated in Table 1.2.
Wild type L. lactis subsp. cremoris PJ4662, a derivative of the strain MG1363 containing the pAK80 plasmid (Israelsen et al., 1995) was grown aerobically in defined SA medium (Jensen and Hammer, 1993) supplemented with a growth limiting concentration of galactose and lipoic acid (GaSAL), and in GaSAL medium further supplemented with haemin+lipoic acid (GaSALH). The biomass yield was estimated by measuring the optical density at 600 nm (OD600). The yield of biomass increased by 30% relative to the yield obtained with GaSAL when the medium was supplemented with haemin (GaSALH). A chemostat experiment was also performed with cells grown on galactose. Here the biomass increased by 75% compared to the biomass obtained in GaSAL medium.

In assay [2] the test system is Lactococcus lactis subsp lactis FHCY-1. Briefly: Growth in M17 batch cultures supplemented with different sugars. It is filed as cell-based. The conditions noted are these: FHCY-1, M17 medium. As for the experimental part: Therefore, the growth of the starter culture strain, FHCY-1, was tested on various sugars.
Assay [3] relates to phospho-β-D-galactosidase in FHCY-1 cells. The assay is described as follows: Phospho-beta-galactosidase activity (ONPG-P substrate) as lac operon expression. It counts as cell-based, Lactococcus lactis subsp. lactis. The conditions noted are these: for Specific activity of phospho-β-D-galactosidase: FHCY-1 cells grown in M17 on the carbon/energy source, average of two determinations. As for the experimental part:
The expression of the lac operon in the cells grown on the various sugars was also tested by measuring the activity of the enzyme phospho-beta-galactosidase. Samples were taken from the cultures in FIG. 2 and processed as described previously (Jensen and Hammer, 1998). Subsequently, the activity of phospho-beta-galactosidase was determined as the standard determination of beta-galactosidase, except that o-nitrophenyl-beta-D-galactopyranoside 6-phosphate (ONPG-P) was used as the chromogenic substrate instead of o-nitrophenyl-beta-D-galactopyranoside (ONPG).

The test system of assay [4] is commercial mixed strain starter culture of Lactococcus lactis. Briefly: Biomass production in pH controlled aerobic batch in complex media with haemin. It counts as cell-based. The note with it: for Yield (OD600nm): haemin, aerobic pH controlled batch. As for the experimental part:
A commercial mixed strain starter culture of Lactococcus lactis was applied in this Example. The cultivations were performed on complex media containing hydrolysed skimmed milk powder, yeast extract, essential vitamins and minerals and either lactose or maltose as carbon source. Furthermore, the media were supplemented with haemin. Medium 1 and Medium 2 were optimised with respect to the cellular yield on respectively lactose and maltose as carbon source. All media were adjusted to an initial pH of 6.5.
The cultivations were inoculated with concentrated cell suspensions of the L. lactis culture. Air was sparged through the cultivation broths at a rate sufficient to maintain the dissolved oxygen concentration above 50% of saturation level. The cultivations were conducted at a temperature of 30° C. The cultures were allowed to acidify to pH 6.2, and subsequently maintained at pH 6.2 by controlled addition of 13.4 N NH4OH. Samples were collected throughout the cultivations for measurements of the optical density using a Hitachi U-1100 Spectrophotometer at […].

The test system of the next assay is atp mutant strain PJ4699. Briefly: Biomass yield (OD600) of atp mutant strain with lower H+-ATPase expression. It is filed as cell-based, Lactococcus lactis. The conditions noted are these: PJ4699, no nisin. From the text:
In order to investigate whether or not the surplus of ATP that was found in the cultures cultivated in maltose medium (with haemin and lipoic acid) is due to oxidative phosphorylation it was decided to compare the biomass yield of a wild type strain and a strain which, relative to the wild type strain, has a lower expression of the H^+-ATPase complex. For that purpose a mutant strain of the MG1363 strain, PJ4699, was used. In this mutant strain the native promoter of the chromosomal atp operon has been replaced with the nisA promoter (de Ruyter et al., 1996).
This mutant therefore permitted an experiment to be performed where the biomass yield of the wild type strain and the H^+-ATPase mutant which had lower expression of the H^+-ATPase was compared. If ATP is synthesised by the H^+-ATPase complex, then the biomass yield on maltose should be lower in the mutant cells having lower activity of this enzyme, under conditions where oxidative phosphorylation is observed.

Assay [5] deals with Lactococcus lactis subsp. cremoris. The assay is described as follows: Intracellular [ATP]/[ADP] ratio in exponentially growing aerobic cultures. It is filed as cell-based. The note with it: MSA+L+H versus MSA+L. On the procedure: The intracellular concentrations of ATP and ADP was measured to test whether the addition of a porphyrin to a culture growing on a poor carbon/energy source would increase the [ATP]/[ADP] ratio as might be expected if the ATP synthase starts to produce ATP. Samples were taken from exponentially growing cultures of Lactococcus lactis subsp. cremoris at cell densities between 0.2 and 0.8 (OD600). The total intracellular metabolite content were extracted as described previously (Andersen et al., 2001) and the concentrations of ATP and ADP were determined as described in Jensen et al. (1 993).

[6] abbreviates: Medium 1 (optimised for growth on lactose).

`O=C(O)CCCC[C@@H]1CCSS1` (racemic) [lipoic acid]: in assay [1], the “Increase of yield of biomass relative to MSA” value is 48% and the “Increase of yield of biomass relative to GSA” value is on record as “about 7%”.
Regarding `O=C[C@H](O)[C@@H](O)[C@@H](O)[C@H](O)CO` [Galactose, galactose], the “Reduction of growth compared to lactose” value in assay [2] is listed as “approximately 20%”. The “Increase of phospho-β-D-galactosidase activity compared to lactose” value in assay [3] (FHCY-1 cells) turned out to be 20%. For the same compound, the “Specific activity of phospho-β-D-galactosidase” value (“Specific activity” below) in assay [3] is listed as 172.2.
Consider `OC[C@H]1O[C@@H](O[C@H]2[C@H](O)[C@@H](O)C(O)O[C@@H]2CO)[C@H](O)[C@@H](O)[C@H]1O` (stereo partly drawn) [Lactose, lactose], for which the “Yield (OD600nm)” value in assay [4] (setting [6]) turned out to be 48 OD600nm. Further, in assay [3], the “Specific activity” value was 149.5.
For the compound `OC[C@H]1O[C@H](O[C@H]2[C@H](O)[C@@H](O)[C@H](O)O[C@@H]2CO)[C@H](O)[C@@H](O)[C@@H]1O` [maltose], the Biomass in assay [1] (moderate aeration) and in assay [1] (vigorous aeration) was 100% each time. Besides, the “Yield (OD600nm)” value was determined as 60 OD600nm in assay [4] (setting [6]) and 96 OD600nm in assay [4] (Medium 2 (optimised for growth on maltose)). In assay [4] (medium 1, haemin, aerobic), the “Increase of final yield of biomass compared to the lactose culture” value amounted to 25%. The “Yield of biomass compared to optimised lactose medium” value in assay [4] (medium 2, haemin, aerobic) is on record as “two-fold higher”. Besides, the “Specific activity” value in assay [3] turned out to be 37.5.
For the compound haemin, in assay [1], the “Increase of yield of biomass relative to MSA” value stood at 33% and the “Increase of yield of biomass relative to GSA” value is reported as “about 12%”. In addition, in the assay on atp mutant strain PJ4699, the “Growth of the nisin-dependent atp mutant without nisin” value was “capable of growth without nisin”. Moreover, the “Growth rate increase of haemin culture versus culture without haemin” value in assay [5] was found to be 30%.
